Structures are written as SMILES.

One may read the melting point as the temperature of the solid-liquid transition. The compound `Fc1cccc(Cn2nc(-c3ccccc3Cl)[nH]c2=S)c1` [Example 58, 5-(2-Chlorophenyl)-1,2-dihydro-2-[(3-fluorophenyl)methyl]-3H-1,2,4-triazole-3-thione] registered a melting point of 125 to 126 °C.

For `S=c1[nH]c(-c2ccccc2Oc2ccccc2)nn1Cc1ccccc1` [Example 39, 1,2-Dihydro-5-[2-(phenoxy)phenyl]-2-(phenylmethyl)-3H-1,2,4-triazole-3-thione], the melting point lay within 158 to 159 °C. Next, `S=c1[nH]c(-c2ccccc2Cl)nn1Cc1cccc(Cl)c1` [Example 42, 5-(2-Chlorophenyl)-2-[(3-chlorophenyl)methyl]-1,2-dihydro-3H-1,2,4-triazole-3-thione]: 143 to 143.5 °C.

Take `S=c1[nH]c(-c2ccccc2Cl)nn1CCc1ccccc1` [Example 66, 5-(2-Chlorophenyl)-1,2-dihydro-2-(2-phenyl)ethyl-3H-1,2,4-triazole-3-thione]: the melting point lay in the range of 131 to 133 °C. As for `Cc1ccc(C)c(Cn2nc(-c3ccccc3Cl)[nH]c2=S)c1` [Example 60], the melting point lay in the range of 166 to 167 °C. In the case of `S=c1[nH]c(-c2ccc(Cl)cc2Cl)nn1Cc1cccc(Oc2ccccc2)c1` [Example 34, 5-(2,4-Dichlorophenyl)-1,2-dihydro-2-[(3-phenoxyphenyl)methyl]-3H-1,2,4-triazole-3-thione], the melting point is 180 to 181 °C.

The compound `Fc1ccc(F)c(Cn2nc(-c3ccccc3Cl)[nH]c2=S)c1` [Example 61, 5-(2-Chlorophenyl)-1,2-dihydro-2-[(2,5-difluorophenyl)methyl]-3H-1,2,4-triazole-3-thione] displayed a melting point of 161 to 163 °C. As for `CC(C)(C)c1ccc(Cn2nc(-c3ccccc3Cl)[nH]c2=S)cc1` [Example 51, 5-(2-Chlorophenyl)-1,2-dihydro-2-[(4(1,1-dimethylethyl)phenyl)methyl]-3H-1,2,4-triazole-3-thione], the figure is 211 to 215 °C. Next, `S=c1[nH]c(-c2ccc(Br)cc2)nn1Cc1ccccc1` [Example 26, 5-(4-Bromophenyl)-1,2-dihydro-2-(phenylmethyl)-3H-1,2,4-triazole-3-thione]: 250 to 251 °C; `S=c1[nH]c(-c2ccc(Br)cc2)nn1Cc1cccc(Cl)c1` [Example 46, 5-(4-Bromophenyl)-2-[(3-chlorophenyl)methyl]-1,2-dihydro-3H-1,2,4-triazole-3-thione]: 242 to 243 °C; `S=c1[nH]c(-c2cccc(Oc3ccccc3)c2)nn1Cc1ccccc1` [Example 30, 1,2-Dihydro-5-(3-phenoxyphenyl)-2-(phenylmethyl)-3H-1,2,4-triazole-3-thione]: 200 to 202 °C. Next, `FC(F)(F)c1ccc(Cn2nc(-c3ccccc3Cl)[nH]c2=S)cc1` [Example 53, 5-(2-Chlorophenyl)-1,2-dihydro-2-[[4-(trifluoromethyl)phenyl]methyl]-3H-1,2,4-triazole-3-thione]: 167 to 168 °C; `S=c1[nH]c(-c2cccc(Cl)c2)nn1Cc1ccccc1` [Example 5, 5-(3-Chlorophenyl)-1,2-dihydro-2-(phenylmethyl)-3H-1,2,4-triazole-3-thione]: 175 to 176 °C; `S=c1[nH]c(-c2cccs2)nn1Cc1ccccc1` [Example 31, 1,2-Dihydro-2-(phenylmethyl)-5-(2-thienyl)-3H-1,2,4-triazole-3-thione]: 230 to 231 °C. In turn, `COC(=O)c1ccc(-c2nn(Cc3ccccc3)c(=S)[nH]2)cc1` [Example 3, 4-[1,2-Dihydro-1-(phenylmethyl)-5-thioxo-3H-1,2,4-triazol-3-yl]benzoic acid, methyl ester] yielded a melting point greater than 215 °C. In the case of `Cc1ccccc1-c1nn(Cc2ccccc2)c(=S)[nH]1` [Example 19, 1,2-Dihydro-5-(2-methylphenyl)-2-(phenylmethyl)-3H-1,2,4-triazole-3-thione], the melting point is 150 to 153 °C. For the compound `S=c1[nH]c(-c2ccc(Cl)cc2Cl)nn1Cc1ccccc1` [Example 27, 5-(2,4-Dichlorophenyl)-1,2-dihydro-2-(phenylmethyl)-3H-1,2,4-triazole-3-thione], the melting point fell in the range of 169 to 170 °C.

`COc1ccc(-c2nn(Cc3ccccc3)c(=S)[nH]2)cc1` [Example 23, 1,2-Dihydro-5-(4-methoxyphenyl)-2-(phenylmethyl)-3H-1,2,4-triazole-3-thione] displayed a melting point of 235 to 237 °C.

For the compound `S=c1[nH]c(-c2ccc3ccccc3c2Br)nn1Cc1ccccc1` [Example 41, 1,2-Dihydro-5-(1-bromo-2-naphthalenyl)-2-(phenylmethyl)-3H-1,2,4-triazole-3-thione], the melting point is 168 to 170 °C. Next, `S=c1[nH]c(-c2ccccc2Br)nn1Cc1ccccc1` [Example 9, 5-(2-Bromophenyl)-1,2-dihydro-2-(phenylmethyl)-3H-1,2,4-triazole-3-thione]: 139 to 140 °C; `Cc1ccc(Cn2nc(-c3ccccc3Cl)[nH]c2=S)cc1` [Example 50, 5-(2-Chlorophenyl)-1,2-dihydro-2-(4-methylphenyl)methyl-3H-1,2,4-triazole-3-thione]: 162 to 163 °C. As for `O=C(c1ccccc1)c1cccc(-c2nn(Cc3ccccc3)c(=S)[nH]2)c1` [Example 40, 1,2-Dihydro-5-(3-(phenylcarbonyl)phenyl)-2-(phenylmethyl)-3H-1,2,4-triazole-3-thione], the figure is 154 to 155 °C; as for `S=c1[nH]c(-c2cccc(Cl)c2Cl)nn1Cc1ccccc1` [Example 8, 5-(2,3-Dichlorophenyl)-1,2-dihydro-2-(phenylmethyl)-3H-1,2,4-triazole-3-thione], 179 to 180 °C. Regarding `COc1ccc(Br)c(-c2nn(Cc3ccccc3)c(=S)[nH]2)c1` [Example 12, 5-(2-Bromo-5-methoxyphenyl)-1,2-dihydro-2-(phenylmethyl)-3H-1,2,4-triazole-3-thione], the melting point lay within 154 to 155 °C.

`O=[N+]([O-])c1ccccc1-c1nn(Cc2ccccc2)c(=S)[nH]1` [Example 6, 1,2-Dihydro-5-(2-nitrophenyl)-2-(phenylmethyl)-3H-1,2,4-triazole-3-thione] yielded a melting point of 147 to 148 °C.

For `S=c1[nH]c(-c2ccc(Cl)cc2Cl)nn1CCc1ccccc1` [Example 44, 5-(2,4-Dichlorophenyl)-1,2-dihydro-2-(2-phenylethyl)-3H-1,2,4-triazole-3-thione], the melting point is 179 to 182 °C. Next, `S=c1[nH]c(-c2ccc(Oc3ccccc3)cc2)nn1Cc1cccc(Cl)c1` [Example 55, 2-[(3-Chlorophenyl)methyl]-5-(4-phenoxyphenyl)-1,2-dihydro-3H-1,2,4-triazole-3-thione]: 183 to 184 °C. As for `FC(F)(F)c1cccc(-c2nn(Cc3ccccc3)c(=S)[nH]2)c1` [Example 10, 1,2-Dihydro-2-(phenylmethyl)-5-[3-(trifluoromethyl)phenyl]-3H-1,2,4-triazole-3-thione], the figure is 209 to 210 °C; as for `S=c1[nH]c(-c2cccnc2)nn1Cc1cccc(Cl)c1` [Example 56, 2-[(3-Chlorophenyl)methyl]-5-(3-pyridinyl)-1,2-dihydro-3H-1,2,4-triazole-3-thione], 208 to 209 °C; as for `O=[N+]([O-])c1ccc(-c2nn(Cc3cccc(Cl)c3)c(=S)[nH]2)cc1` [Example 62, 2-[(3-Chlorophenyl)methyl]-5-(4-nitrophenyl)-1,2-dihydro-3H-1,2,4-triazole-3-thione], 256 to 258 °C.

The compound `Cc1ccc(-c2nn(Cc3ccccc3)c(=S)[nH]2)cc1` [Example 24, 1,2-Dihydro-5-(4-methylphenyl)-2-(phenylmethyl)-3H-1,2,4-triazole-3-thione] returned a melting point of 234 to 235 °C. Next, `S=c1[nH]c(-c2ccccc2Cl)nn1Cc1cccc(Oc2ccccc2)c1` [Example 52, 5-(2-Chlorophenyl)-1,2-dihydro-2-[(3-phenyloxy)phenylmethyl]-3H-1,2,4-triazole-3-thione]: 137 to 138 °C.

`S=c1[nH]c(-c2ccncc2)nn1Cc1ccccc1` [Example 14, 1,2-Dihydro-2-(phenylmethyl)-5-(4-pyridinyl)-3H-1,2,4-triazole-3-thione] gave a melting point of 160 to 162 °C. As for `Oc1cccc(Cn2nc(-c3ccccc3)[nH]c2=S)c1` [Example 35, 1,2-Dihydro-2-[(3-hydroxyphenyl)methyl]-5-phenyl-3H-1,2,4-triazole-3-thione], the figure is 233 to 235 °C.

As to `S=c1[nH]c(-c2cc(Cl)sc2Cl)nn1Cc1ccccc1` [Example 13, 5-(2,5-Dichloro-3-thienyl)-1,2-dihydro-2-(phenylmethyl)-3H-1,2,4-triazole-3-thione], the melting point is 160 to 162 °C.

`S=c1[nH]c(-c2cccnc2Cl)nn1Cc1ccccc1` [Example 16, 5-(2-Chloro-3-pyridinyl)-1,2-dihydro-2-(phenylmethyl)-3H-1,2,4-triazole-3-thione] showed a melting point of 155 to 156 °C.

`N#Cc1cccc(Cn2nc(-c3ccccc3Cl)[nH]c2=S)c1` [Example 64, 5-(2-Chlorophenyl)-1,2-dihydro-2-[(3-cyanophenyl)methyl]-3H-1,2,4-triazole-3-thione] displayed a melting point of 161 to 163 °C.

In turn, `S=c1[nH]c(-c2cncnc2)nn1Cc1cccc(Cl)c1` [Example 63, 2-[(3-Chlorophenyl)methyl]-5-(pyrrndin-5-yl) 1,2-dihydro-3H-1,2,4-triazole-3-thione] had a melting point of 204 to 207 °C.

As for `N#Cc1ccc(-c2nn(Cc3ccccc3)c(=S)[nH]2)cc1` [Example 7, 5-(4-Cyanophenyl)-1,2-dihydro-2-(phenylmethyl)-3H-1,2,4-triazole-3-thione], the melting point fell in the range of 237 to 238 °C. Next, `CSc1ccccc1-c1nn(Cc2ccccc2)c(=S)[nH]1` [Example 38, 1,2-Dihydro-5-[2-(methylthio)phenyl]-2-(phenylmethyl)-3H-1,2,4-triazole-3-thione]: 170 to 171 °C; `COc1ccccc1-c1nn(Cc2ccccc2)c(=S)[nH]1` [Example 18, 1,2-Dihydro-5-(2-methoxyphenyl)-2-(phenylmethyl)-3H-1,2,4-triazole-3-thione]: 142 to 143.5 °C.

(Values after patent US20020086862A1, “Novel compounds” (AstraZeneca AB, priority 1998, published 2002).)
